This is an account of results in publication PMC5050400 (Current Neuropharmacology, 2016).

As usually defined, the EC50 is the concentration needed to bring the measured effect to its halfway point. A lower EC50 goes with greater potency. In general, Kd refers to the constant that tells how readily two partners part at equilibrium. High values mean weaker binding, low ones tighter binding.

Holding throughout (type): cell-based
Assay [1] concerns the target T1, α1β3(Y143W) GABAA receptor (Homo sapiens, UniProt P14867+P28472, Y168W).
T1 sequence (P28472 26-473 Y168W): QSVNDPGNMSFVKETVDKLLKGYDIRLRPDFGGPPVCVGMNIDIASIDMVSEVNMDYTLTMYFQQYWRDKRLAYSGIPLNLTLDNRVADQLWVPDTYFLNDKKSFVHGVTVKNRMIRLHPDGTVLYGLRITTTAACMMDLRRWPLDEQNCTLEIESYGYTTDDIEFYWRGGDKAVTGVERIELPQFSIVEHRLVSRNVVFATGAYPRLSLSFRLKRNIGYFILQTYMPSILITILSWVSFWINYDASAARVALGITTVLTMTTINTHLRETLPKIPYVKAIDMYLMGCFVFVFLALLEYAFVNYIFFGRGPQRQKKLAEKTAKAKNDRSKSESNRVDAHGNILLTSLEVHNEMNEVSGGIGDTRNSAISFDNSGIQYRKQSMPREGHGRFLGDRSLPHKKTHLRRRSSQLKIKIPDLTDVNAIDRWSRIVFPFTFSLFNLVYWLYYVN
T1 sequence (P14867 28-456): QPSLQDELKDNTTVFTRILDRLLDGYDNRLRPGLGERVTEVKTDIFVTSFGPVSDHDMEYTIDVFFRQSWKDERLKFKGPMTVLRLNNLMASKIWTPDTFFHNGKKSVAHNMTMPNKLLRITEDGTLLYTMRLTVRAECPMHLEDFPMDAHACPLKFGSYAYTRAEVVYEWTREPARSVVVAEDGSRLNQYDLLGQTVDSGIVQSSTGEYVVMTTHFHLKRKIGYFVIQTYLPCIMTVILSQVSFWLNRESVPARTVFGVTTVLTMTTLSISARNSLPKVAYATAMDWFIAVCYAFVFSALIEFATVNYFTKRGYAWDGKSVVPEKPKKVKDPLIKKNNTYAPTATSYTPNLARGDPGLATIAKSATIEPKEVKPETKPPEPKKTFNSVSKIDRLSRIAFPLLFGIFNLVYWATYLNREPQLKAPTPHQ
The assay is described as follows: Two-electrode voltage clamp activation of α1β3. The settings on record: for Po,max^est / nH / d: α1β3(Y143W); for d: KO/KC, MWC fit. (In two-electrode clamp one electrode senses voltage and the other passes current.)

Assay [2] addresses T2, α1β3 GABAA receptor (Homo sapiens, UniProt P14867+P28472).
T2 sequence (P28472 26-473): T1 sequence (P28472 26-473 Y168W) with W143Y
T2 sequence (P14867 28-456): T1 sequence (P14867 28-456)
The settings on record: for d / Po,max^est / nH: wild-type α1β3; for d: KO/KC, gating efficacy, MWC fit, n = 5 for propofol, 2 for GABA; for Po,max^est: estimated maximal open probability at saturating agonist; for nH: slope of concentration-response curve.

In assay [3] the target is T3, α1β3(M286W+Y143W) GABAA receptor (Homo sapiens, UniProt P14867+P28472, M311W/Y168W).
T3 sequence (P28472 26-473 Y168W/M311W): T1 sequence (P28472 26-473 Y168W) with M286W
T3 sequence (P14867 28-456): T1 sequence (P14867 28-456)
The experiment in a line: Two-electrode voltage clamp activation of α1β3. The settings on record: for Po,max^est / nH / d: α1β3(M286W+Y143W); for d: KO/KC, MWC fit.

Assay [4] deals with T4, α1β3(F221W) GABAA receptor (Homo sapiens, UniProt P14867+P28472, F246W).
T4 sequence (P28472 26-473 F246W): T1 sequence (P28472 26-473 Y168W) with W143Y, F221W
T4 sequence (P14867 28-456): T1 sequence (P14867 28-456)
The experiment in a line: Two-electrode voltage clamp activation of α1β3. The settings on record: for Po,max^est / nH / d: α1β3(F221W); for d: KO/KC, MWC fit.

Substitutions are numbered along the chain they refer to. Several values for one entry are separate records, joined by “and”; a condition that tells them apart may be missing. Equal entries are not always repeated.

As for `NCCCC(=O)O` [GABA, γ-aminobutyric acid], the “Po,max^est” value is listed as 1 in assay [1], 0.65±0.04 in assay [2], 0.96±0.09 in assay [3] and 1 in assay [4]. Moreover, the nH was 1.7±0.1 in assay [1], 1.5±0.1 in assay [2], 0.8±0.1 in assay [3] and 1.5±0.1 in assay [4]. Further, the d is 0.02±0.001 in assay [1], 0.02±0.001 in assay [2], 0.08±0.05 in assay [3] and 0.03±0.02 in assay [4].
Take `CC(C)c1cccc(C(C)C)c1O` [Propofol, 2,6-diisopropylphenol]: in assay [1], the EC50 stood at 12.8 ± 2.9 µM, the Kd is 23 ± 6 µM, the “Po,max^est” value stood at 1 and the nH turned out to be 1.6±0.1. The d in assay [1] is 0.27±0.03. Further, the EC50 in assay [2] (EC50, wild-type α1β3, direct activation, mean ± S.E.M., at least 4 cells) is 13 µM and 12.5 µM. In addition, in assay [2], the d worked out at 0.24±0.01, the “Po,max^est” value is 0.50±0.02 and the nH was found to be 1.7±0.3. In assay [3], the concentration for a half-maximal effect (EC50) was found to be 1.6 ± 0.2 µM, the Kd was determined as 1.4 ± 0.3 µM, the “Po,max^est” value is listed as 0.64±0.02 and the nH amounted to 1.5±0.2. The molecule also gave a d in assay [3] of 0.93±0.01. In assay [4], a half-maximal response (EC50) required 5 ± 0.5 µM, binding was characterised by a dissociation constant (Kd) of 13.1 ± 1.5 µM, the “Po,max^est” value is 1 and the nH amounted to 1.9±0.3. The d in assay [4] is recorded as 0.23±0.01.
